Measurements published in patent US20080161389A1, “METHOD OF TREATING OCULAR HYPERTENSION AND INTESTINAL DISORDERS BY USING DIANHYDROHEXITE MONONITRATE DERIVATIVES” (LACER, S.A., priority 2006, published 2008).

Legend:
[1] = tested on: Alfa-Chymotrypsin-Induced Glaucoma; experiment: Intraocular pressure in alfa-chymotrypsin-induced glaucoma; type: in vivo, rabbits; conditions: for intraocular pressure 0 hr: 0 h after 3 drops instillation; for intraocular pressure 0 hr / intraocular pressure 1 hr / intraocular pressure 2 hr: rabbits with alpha-chymotrypsin-induced glaucoma; for reduction of intraocular pressure (in words): 0.05%, similar to conventional compound at 10-fold lower concentration; for intraocular pressure 1 hr: 1 h after 3 drops instillation; for intraocular pressure 2 hr: 2 h after 3 drops instillation
Protocol: The method used was that described by Gabriele Campana, Claudio Bucolo, Giovanna Murari and Santi Spampinato in Pharmacol. Exp Therap Vol. 303, Issue 3, 1086-1094, December 2002
Animals were injected with intra muscular injection of dexamethasone at the dose rate of 10 mg/Kg body weight, to avoid immediate inflammation. Animals were anesthetized with ketamine (50 mg/kg IV) in combination with Dizepam.
Xylocaine (4%) was used for local anesthesia topically. A cannula attached to reservoir was inserted into the anterior chamber with the help of a 30 gauge needle to provide a hydrostatic pressure of 25 mmHg during injection of alpha-chymotrypsin. Then a second appropriately shaped 30 gauge needle was introduced near the pupil. Freshly prepared 150 units of alpha chymotrypsin prepared in 0.1 ml of sterile saline was irrigated through the cannula into the posterior chamber. Care was taken to prevent the contact of alpha chymotrypsin with corneal stroma. Both cannulas were carefully removed without significant loss of aqueous humor. Immediately after surgery the eye treated with Sofracort (Corticosteroid) to reduce the chances of fungal or microbial infection.
All the animals were kept under observation for 5 days and after these five days the intraocular pressure (IOP) was measured daily with a Schiontz type indentation tonometer using 5.5 gm weights and by compilation of readings the maximum period required to achieve a stable increase in IOP was determined. […] IOP was measured after 15 days for 3 consecutive days, every morning (at same time) to assure stable IOP.
All the animals were closely observed for the development of glaucoma. Thirty animals showing the symptoms of glaucoma and with the intra ocular pressure more than 30 mmHg were selected for the present investigation.
Compounds 2-acetylthioisosorbide-5-mononitrate and 2-[(R)-methylsulfinyl]isosorbide-5-mononitrate (0.05%) were administered to two different groups of rabbits at a concentration of 0.05% by weight [0.05g in 100 mL of saline serum] by 3 drops instillation. For comparative data, the compound Timolol (Timoftol®) widely used for the treatment of glaucoma, was also administered to another group of rabbits at a concentration of 0.5% by weight.
The intraocular pressure measurements are included in the table 2 in mm Hg taken at 0, 1 and 2 h after 3 drops instillation.

[2] = tested on: Enterococcus sp; experiment: Bacterial translocation (Enterococcus sp) in indomethacin-induced intestinal inflammation; type: in vivo; conditions: number of positive cultures / total number of samples in group, mesenteric lymph nodes, mice, 30 mg/kg orally
Protocol: (§1) Intestinal inflammation were induced by administration of two subcutaneous injections of 7.5 mg/kg indomethacin, as previously described Porras M., Martin M T., Soler M. and Vergara P., “Intestinal motor disorders associated with cyclical bacterial overgrowth in a rat model of enteritis”. Am. J. Physiol. Gastrointest. Liver Physiol. […] Am. J. Physiol. Gastrointest. Liver Physiol. (2006), 290:G423-G430.
Once the intestinal inflammation has been induced, one group of mice were treated with 30 mg of the compound 2-acetylthioisosorbide-5-mononitrate per kg of body weight, being dissolved this compound in water and administered orally. […]
Myeloperoxidase (MPO) activity was measured as an inflammation index in homogenized tissue samples after centrifugation using a specific ELISA kit (HyCult biotechnology, Uden, The Netherlands). In addition, since the barrier function of the intestinal mucus is deteriorated when the epithelium is inflamed and, as a consequence, the exposed bacteria cross the membrane and enter in the blood current, bacterial translocation was measured by detection of viable enteric bacteria in mesenteric lymph nodes as described by [M Mainous M R., Tso P., Berg R. D. and Deitch E. A., Arch Surg (1991) 126:33-37] as additional measure of inflammation degree. […]

[3] = tested on: E. coli; experiment: Bacterial translocation (E. coli) in indomethacin-induced intestinal inflammation; type: in vivo; conditions: mice; for Bacterial translocation E. coli: number of positive cultures / total number of samples in group, mesenteric lymph nodes, 30 mg/kg orally
Protocol: as §1
(§2) Once the intestinal inflammation has been induced, one group of mice were treated with 30 mg of the compound 2-acetylthioisosorbide-5-mononitrate per kg of body weight, being dissolved this compound in water and administered orally. For comparative data, the compound isosorbide-5-mononitrate (IS-5-MN), structurally similar to 2-acetylthioisosorbide-5-mononitrate, was also administered to another group of mice.
(§3) Myeloperoxidase (MPO) activity was measured as an inflammation index in homogenized tissue samples after centrifugation using a specific ELISA kit (HyCult biotechnology, Uden, The Netherlands). In addition, since the barrier function of the intestinal mucus is deteriorated when the epithelium is inflamed and, as a consequence, the exposed bacteria cross the membrane and enter in the blood current, bacterial translocation was measured by detection of viable enteric bacteria in mesenteric lymph nodes as described by [M Mainous M R., Tso P., Berg R. D. and Deitch E. A., Arch Surg (1991) 126:33-37] as additional measure of inflammation degree.
(§4) Studies of the route, magnitude, and time course of bacterial translocation in a model of systemic inflammation were achieved as describe in Arch Surg 126:33-37, 1991. Bacterial translocation was expressed as the number of positive cultures with respect to the total number of samples in each group and motor activity was measured as the contracting activity expressed as the total number of spontaneous contractions recorded at duodenum per minute.

[4] = tested on: Myeloperoxidase (MPO); experiment: Myeloperoxidase (MPO) activity as inflammation index in homogenized tissue samples (ELISA), indomethacin-induced intestinal inflammation; type: in vivo, mice; conditions: for MPO activity: homogenized tissue samples, mice, indomethacin-induced intestinal inflammation, 30 mg/kg orally
Protocol: as §1, §2, §3

[5] = tested on: duodenum; experiment: Motor activity: spontaneous contractions recorded at duodenum, indomethacin-induced intestinal inflammation; type: in vivo; conditions: spontaneous contractions recorded at duodenum per minute, mice, 30 mg/kg orally
Protocol: as §1, §2, §4

SMILES	intraocular pressure 0 hr [1]	reduction of intraocular pressure (in words) [1]	intraocular pressure 1 hr [1]	intraocular pressure 2 hr [1]	Bacterial translocation Enterococcus sp [2]	bacterial translocation (in words) [3]	Bacterial translocation E. coli [3]	reduction of MTO activity (in words) ([4]; compared to a structurally similar compound (IS-5-MN))	MPO activity [4]	Contractions/min [5]
C[S@@+]([O-])C1COC2C(O[N+](=O)[O-])COC21 (stereo partly drawn) [2-[(R)-methylsulfinyl]isosorbide-5-mononitrate]	33.87 ± 0.38 mm Hg	significantly reduce the intraocular pressure	23.51 ± 0.24 mm Hg	22.77 ± 0.19 mm Hg	–	–	–	–	–	–
CC(=O)S[C@H]1CO[C@H]2[C@@H]1OC[C@H]2O[N+](=O)[O-] [2-acetylthioisosorbide-5-mononitrate, 2-acetylthio-isosorbide-5-mononitrate]	34.33 ± 0.68 mm Hg	significantly reduce the intraocular pressure	24.72 ± 0.47 mm Hg	23.86 ± 0.32 mm Hg	1/6	also reduced	2/6	significant reduction	10 ± 2 ng/mL	0.2 ± 0.1 Contractions/min
O=[N+]([O-])O[C@@H]1CO[C@H]2[C@@H]1OC[C@@H]2O [IS-5-MN, isosorbide-5-mononitrate, reference compound]	–	–	–	–	3/6	–	3/6	–	19 ± 4 ng/mL	0.5 ± 0.1 Contractions/min
CC(C)(C)NC[C@H](O)COc1nsnc1N1CCOCC1 [Timolol, reference compound]	34.45 ± 0.58 mm Hg	–	24.77 ± 0.26 mm Hg	24.54 ± 0.26 mm Hg	–	–	–	–	–	–
